Patent publication US20180098969A1, “HODGKIN LYMPHOMA THERAPY” (Purdue Pharmaceutical Products L.P., priority 2016, published 2018)

Experiments:
[1] = test system: non-resistant L1236 Hodgkin lymphoma cell lines; experiment: Viable cell count and IC50, non-resistant lines; type: cell-based, human; details: FIG. 6B
Experimental: (b) The bendamustine-resistant Hodgkin lymphoma cell line L1236-R100, non-resistant L1236 Hodgkin lymphoma cell line cultured in DMSO L1236/DMSO and L1236 was cultured in the presence of EDO-S101 dissolved in DMSO at concentrations of 0.78 μM, 1.56 μM, 3.12 μM, 6.25 μM and 12.5 μM. Control cells were cultured in the same final concentration of DMSO. The number of viable cells was assessed at 24, 48 and 72 hours through a Countess™ automated cell counter (Invitrogen), each experiment being repeated three times and the results given being the mean of the three results ±SD.

[2] = test system: relapsed-refractory Hodgkin lymphoma; details: in vivo; cited from earlier work

In the case of `Cn1c(CCCC(=O)O)nc2cc(N(CCCl)CCCl)ccc21` [bendamustine], the IC50 [1] is given as “high IC50 values” and the “relapsed/refractory Hodgkin lymphoma patients resistant” value [2] is given as “about 40%”.
